Laboratory results from patent publication US20090048269A1 (AstraZeneca AB, priority 2007, published 2009).

Target: T1, human ALK5 (Homo sapiens, UniProt P36897)
T1 sequence (P36897 162-503): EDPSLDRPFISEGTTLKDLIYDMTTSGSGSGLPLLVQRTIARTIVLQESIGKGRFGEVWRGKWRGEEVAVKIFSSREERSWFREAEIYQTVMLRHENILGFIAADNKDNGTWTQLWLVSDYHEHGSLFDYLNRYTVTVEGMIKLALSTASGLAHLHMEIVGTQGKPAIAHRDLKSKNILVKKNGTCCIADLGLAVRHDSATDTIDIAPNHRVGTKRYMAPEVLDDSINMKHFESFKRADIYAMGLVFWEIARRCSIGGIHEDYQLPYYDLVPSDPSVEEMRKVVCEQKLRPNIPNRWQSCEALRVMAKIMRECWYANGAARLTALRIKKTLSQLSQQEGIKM
Assay: ALK5 Enzyme Assay 2 (fluorescence polarisation probe displacement)
Type: binding
Parameters: 6His tagged human ALK5 (residues162-503) was grown and purified from insect cells; 6His; made in house; host or cells: insect cells
Settings: read-out: EAA2: activity (μM) using Enzyme Assay 2
Method: The ability of a compound to bind and inhibit ALK5 can be measured by its capacity to displace a probe molecule from recombinant ALK5 in an in vitro assay. Provided the probe molecule is derivatised with a fluorescent probe or is fluorescent itself, the binding affinity can be measured using Fluorescence Polarisation (FP). […] Assay measurements were performed in 50 mM HEPES pH7.4, 10 mM MgCl2, 1 mM DTT, 0.01% CHAPS in a final assay volume of 12 μl. Briefly 6 μl of ALK5 protein, final concentration of 3 μg/mL, was added to each well of a 384 well assay plate containing 12 nL of each concentration of test compound dissolved in DMSO. 6 μL of a solution containing an ALK5 FP probe ((2Z)-3-(6-{4-[2-({4-[(6-chloro[1,3]dioxolo[4,5-b]pyridin-7-yl)amino]-5-(1-methylethoxy)quinazolin-7-yl}oxy)ethyl]piperazin-1-yl}-6-oxohexyl)-2-[(2E,4E)-5-(3-ethyl-1,1-dimethyl-6,8-disulfo-1H-benzo[e]indolium-2-yl)penta-2,4-dien-1-ylidene]-1,1-dimethyl-6-sulfo-2,3-dihydro-1H-benzo[e]indole-8-sulfonate), final concentration 50 nM, and ATP, final concentration 1 μM.

| SMILES | IC50 [µM] |
| --- | --- |
| Cc1ccc(Oc2ccnc(Nc3ccc(OCC(O)CNC(C)C)cc3)c2)c(C)n1 (centres unmarked) [Example 129, 1-(4-{[4-(2,6-Dimethylpyridin-3-yl)oxypyridin-2-yl]amino}-phenoxy)-3-(propan-2-ylamino)propan-2-ol] | 0.103 |
| COc1ccc(-c2nc(C)ccc2Oc2ccnc(Nc3cc(OC)c(OC)c(OC)c3)c2)cn1 [Example 169, 4-(6′-Methoxy-6-methyl-2,3′-bipyridin-3-yloxy)-N-(3,4,5-trimethoxyphenyl)pyridin-2-amine] | 0.0751 |
| Cc1ccc(Oc2ccnc(Nc3ccc(C(N)=O)cc3)c2)c(C)n1 [Example 92, 4-{[4-(2,6-Dimethylpyridin-3-yl)oxypyridin-2-yl]amino}benzamide] | 0.0694 |
| Cc1ccc(Oc2ccnc(Nc3ccc(S(=O)(=O)NCCN4CCS(=O)(=O)CC4)cc3)c2)c(C)n1 [Example 132, 4-{[4-(2,6-Dimethylpyridin-3-yl)oxypyridin-2-yl]amino}-N-[2-(1,1-dioxo-1,4-thiazinan-4-yl)ethyl]benzenesulfonamide] | 0.142 |
| Cc1ccc(Oc2ccnc(Nc3cccc(CN4CCN(C(=O)Nc5ccc(F)c(Cl)c5)CC4)c3)c2)c(C)n1 [Example 180, N-(3-Chloro-4-fluorophenyl)-4-[(3-{[4-(2,6-dimethylpyridin-3-yl)oxypyridin-2-yl]amino}phenyl)methyl]piperazine-1-carboxamide] | 0.0896 |
| CCn1nccc1Nc1cc(Oc2ccc(C)nc2C)ccn1 [Example 88, 4-[(2,6-Dimethylpyridin-3-yl)oxy]-N-(1-ethyl-1H-pyrazol-5-yl)-pyridin-2-amine] | 0.205 |
| Cc1cc(Oc2ccnc(Nc3cccc(C(=O)N4CCC4)c3)c2)c(-c2ccccn2)nc1C [Example 98, Azetidin-1-yl-(3-{[4-(5,6-dimethyl-2-pyridin-2-ylpyridin-3-yl)-oxypyridin-2-yl]amino}phenyl)methanone] | 0.0513 |
| Cc1ccc(Oc2ccnc(Nc3ccccc3)c2)c(C(=O)NCc2ccc[nH]2)n1 [Example 94, 3-(2-Anilinopyridin-4-yl)oxy-6-methyl-N-(1H-pyrrol-2-ylmethyl)-pyridine-2-carboxamide] | 0.119 |
| COCCCNS(=O)(=O)c1ccc(Nc2cc(Oc3ccc(C)nc3C)ccn2)cc1 [Example 109, 4-{[4-(2,6-Dimethylpyridin-3-yl)oxypyridin-2-yl]amino}-N-(3-methoxypropyl)benzenesulfonamide] | 0.269 |
| Cc1ccc(Oc2ccnc(Nc3cccc(C(=O)N4CCN(C)CC4)c3)c2)c(C)n1 [Example 71, [3-{[4-(2,6-Dimethylpyridin-3-yl)oxypyridin-2-yl]amino}phenyl]-(4-methylpiperazin-1-yl)methanone] | 0.096 |
| COc1cc(Nc2cc(Oc3ccc(C)nc3-c3cccnc3)ccn2)cc(OC)c1OC [Example 172, 4-(6-Methyl-2,3′-bipyridin-3-yloxy)-N-(3,4,5-trimethoxyphenyl)-pyridin-2-amine] | 0.061 |
| CCN(CC)S(=O)(=O)c1ccc(Nc2cc(Oc3ccc(C)nc3C)ccn2)cc1 [Example 116, 4-{[4-(2,6-Dimethylpyridin-3-yl)oxypyridin-2-yl]amino}-N,N-diethylbenzenesulfonamide] | 1.42 |

Stronger by IC50, values ahead:

| IC50 [µM] | SMILES |
| --- | --- |
| 0.0111 | Cc1cc(Oc2ccnc(Nc3ccc(C(N)=O)cc3)c2)c(-c2ccccn2)nc1C [Example 81, 4-{[4-(5,6-Dimethyl-2-pyridin-2-ylpyridin-3-yl)oxypyridin-2-yl]-amino}benzamide] |
| 0.0457 | CC(=O)NC1CCN(C(=O)c2cccc(Nc3cc(Oc4ccc(C)nc4C)ccn3)c2)C1 (centres unmarked) [Example 65, N-[1-(3-{[4-(2,6-Dimethylpyridin-3-yl)oxypyridin-2-yl]-amino}benzoyl)pyrrolidin-3-yl]acetamide] |
| 0.0047 | Cc1ccc(Oc2ccnc(Nc3ccccn3)c2)c(-c2ccccc2)n1 [Example 150, 4-(6-Methyl-2-phenylpyridin-3-yl)oxy-N-pyridin-2-ylpyridin-2-amine] |
| 0.0213 | CNC(=O)CN1CCN(Cc2cccc(Nc3cc(Oc4ccc(C)nc4C)ccn3)c2)CC1 [Example 191] |
| 0.0189 | Cc1ccc(Oc2ccnc(Nc3ccc(C(=O)NC4CCN(C)CC4)cc3)c2)c(C)n1 [Example 130, 4-[4-(2,6-Dimethylpyridin-3-yloxy)pyridin-2-ylamino]-N-(1-methylpiperidin-4-yl)benzamide] |
| 0.00528 | Cc1ccc(Oc2ccnc(Nc3ccc(CO)cc3)c2)c(-c2ccco2)n1 [Example 163, [4-({4-[2-(Furan-2-yl)-6-methylpyridin-3-yl]oxypyridin-2-yl}-amino)phenyl]methanol] |
| 0.014 | Cc1ccc(Oc2ccnc(Nc3ccc(S(N)(=O)=O)cc3)c2)c(-c2ccccc2)n1 [Example 149, 4-{[4-(6-Methyl-2-phenylpyridin-3-yl)oxypyridin-2-yl]amino}-benzenesulfonamide] |
| 0.0136 | Cc1cc(Oc2ccnc(Nc3ccc(OCC(O)CNC(C)C)cc3)c2)c(-c2ccccn2)nc1C (centres unmarked) [Example 75, 1-(4-{[4-(5,6-Dimethyl-2-pyridin-2-ylpyridin-3-yl)oxypyridin-2-yl]-amino}phenoxy)-3-(propan-2-ylamino)propan-2-ol] |
| 0.00842 | CC(=O)Nc1ccc(Nc2cc(Oc3cc(C)c(C)nc3-c3ccccn3)ccn2)cc1 [Example 86, N-(4-{[4-(5,6-Dimethyl-2-pyridin-2-ylpyridin-3-yl)oxypyridin-2-yl]-amino}phenyl)acetamide] |
| 0.0321 | Cc1ccc(Oc2ccnc(Nc3cccc(NS(C)(=O)=O)c3)c2)c(C)n1 [Example 128, N-(3-{[4-(2,6-Dimethylpyridin-3-yl)oxypyridin-2-yl]amino}-phenyl)methanesulfonamide] |
| 0.0375 | C#CC(C)(C)NC(=O)c1cccc(Nc2cc(Oc3cc(C)c(C)nc3-c3ccccn3)ccn2)c1 [Example 103, 3-{[4-(5,6-Dimethyl-2-pyridin-2-ylpyridin-3-yl)oxypyridin-2-yl]-amino}-N-(2-methylbut-3-yn-2-yl)benzamide] |
| 0.00427 | Cc1ccc(Oc2ccnc(Nc3cccc(CN4CCN(C)CC4)c3)c2)c(C)n1 [Example 193, 4-(2,6-Dimethylpyridin-3-yl)oxy-N-{3-[(4-methylpiperazin-1-yl)-methyl]phenyl}pyridin-2-amine] |
| 0.0204 | Cc1ccc(Oc2ccnc(Nc3ccc(C(N)=O)cc3)c2)c(-c2ccco2)n1 [Example 162, 4-({4-[2-(Furan-2-yl)-6-methylpyridin-3-yl]oxypyridin-2-yl}-amino)benzamide] |
| 0.0127 | Cc1ccc(Oc2ccnc(Nc3cccc(CN4CCN(C(=O)C5CC5)CC4)c3)c2)c(C)n1 [Example 183, N-(3-{[4-(cyclopropylcarbonyl)piperazin-1-yl]methyl}phenyl)-4-[(2,6-dimethylpyridin-3-yl)oxy]pyridin-2-amine] |
| 0.0237 | Cc1ccc(Oc2ccnc(Nc3cccc(CN4CCN(C(=O)NC5CCCCC5)CC4)c3)c2)c(C)n1 [Example 178, N-Cyclohexyl-4-{3-[4-(2,6-dimethylpyridin-3-yloxy)pyridin-2-ylamino]benzyl}piperazine-1-carboxamide] |
| 0.0339 | Cc1ccc(Oc2ccnc(Nc3ccc(CC#N)cc3)c2)c(-c2ccccc2)n1 [Example 148, 2-(4-{[4-(6-Methyl-2-phenylpyridin-3-yl)oxypyridin-2-yl]-amino}phenyl)acetonitrile] |
| 0.00921 | Cc1ccc(Oc2ccnc(Nc3ccc(CO)cc3)c2)c(-c2ccccn2)n1 [Example 147, (4-{[4-(6-Methyl-2-pyridin-2-ylpyridin-3-yl)oxypyridin-2-yl]-amino}phenyl)methanol] |
